This passage reports EC50 results from patent publication US9758527B2, “Cyclohexene derivative, preparation method therefor, and pharmaceutical composition for preventing or treating metabolic diseases, containing same as active ingredient” (HYUNDAI PHARM CO., LTD., priority 2014, dated 2017).

Molecules are shown by their SMILES. Where two headings read alike, the source gives them in different places.

The test has as its target T1, G protein-coupled receptor 119 (GPR-119) (Mesocricetus auratus, UniProt A0A1U8CD06).
T1 construct: hamster-derived β-cells containing G protein-coupled receptor 119 (GPR-119), HIT-T15 cells; host or cells: HIT-T15 (hamster pancreatic β-cells)
T1 sequence (A0A1U8CD06 1-334): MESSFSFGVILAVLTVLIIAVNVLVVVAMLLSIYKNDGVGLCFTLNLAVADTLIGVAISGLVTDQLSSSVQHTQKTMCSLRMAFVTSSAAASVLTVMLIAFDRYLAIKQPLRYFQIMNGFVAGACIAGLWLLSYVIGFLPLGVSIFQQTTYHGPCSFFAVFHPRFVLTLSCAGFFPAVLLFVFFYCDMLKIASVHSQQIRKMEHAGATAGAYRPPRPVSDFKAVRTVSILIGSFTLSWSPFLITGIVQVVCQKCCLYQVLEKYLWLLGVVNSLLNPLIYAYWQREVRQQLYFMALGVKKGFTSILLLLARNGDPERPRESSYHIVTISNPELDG
The test is described as follows: Evaluation of cAMP activity in HIT-T15 cells (HTRF cAMP dynamic kit). Particulars: cAMP activation. The test is classed as cell-based, hamster. In outline: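 HIT-T15 cells, 60,000/well, treated next day with compound at six concentrations ([…]) for 1 h at 37° C. Lysate cAMP quantified by HTRF competitive immunoassay (D2-cAMP, cryptate anti-cAMP); activity taken as change in FRET signal relative to DMSO.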

[1] abbreviates: EC50 (nM), 1 h at 37° C., six concentrations.
Where [2] appears, read: 1 h at 37° C., six concentrations, read-out: EC50.

One may read the EC50 as the concentration at which the effect is half-maximal. As for `CCc1cnc(N2CCC(COc3ccc(C4=CCC(C(=O)N5CCC6(CC5)OCCO6)CC4)cc3)CC2)nc1` (stereo not drawn) [Example 229, (4-(4-((1-(5-ethylpyrimidin-2-yl)piperidin-4-yl)methoxy)phenyl)cyclohex-3-enyl)(1,4-dioxa-8-azaspiro[4.5]decan-8-yl)methanone], the EC50 runs as follows: under setting [1], 11 nM; (EC50 value) at most 50 nM.

Take `CCc1cnc(N2CCC(COc3ccc(C4=CCC(C(=O)N5CC=CC5)CC4)cc3)CC2)nc1` (stereo not drawn) [Example 235, (2,5-dihydro-1H-pyrrol-1-yl)(4-(4-((1-(5-ethylpyrimidin-2-yl)piperidin-4-yl)methoxy)phenyl)cyclohex-3-enyl)methanone]: the EC50 under setting [2] turned out to be 24 nM.

In the case of `CN(CCO)C(=O)C1CC=C(c2ccc(OCC3CCN(C(=O)OC(C)(C)C)CC3)cc2)CC1` (stereo not drawn) [Example 236, tert-butyl 4-((4-(4-((2-hydroxyethyl)(methyl)carbamoyl)cyclohex-1-enyl)phenoxy)methyl)piperidine-1-carboxylate], the concentration giving a half-maximal response (EC50) was 14 nM under setting [2] and at most 50 nM (read-out: EC50 value).

For the molecule `CC(C)(C)OC(=O)N1CCC(COc2ccc(C3=CCC(C(=O)N4CCc5ccccc5C4)CC3)cc2)CC1` (stereo not drawn) [Example 239, tert-butyl 4-((4-(4-(1,2,3,4-tetrahydroisoquinoline-2-carbonyl)cyclohex-1-enyl)phenoxy)methyl)piperidine-1-carboxylate], the EC50 under setting [2] is 22 nM.

As for `CCc1cnc(N2CCC(COc3ccc(C4=CCC(C(=O)N(C)CCCO)CC4)cc3)CC2)nc1` (stereo not drawn) [Example 242, 4-(4-((1-(5-ethylpyrimidin-2-yl)piperidin-4-yl)methoxy)phenyl)-N-(3-hydroxypropyl)-N-methylcyclohex-3-enecarboxamide], the 50% effective concentration (EC50) reads like this: under setting [2], 21 nM; (read-out: EC50 value) at most 50 nM.

Consider `CC(C)c1noc(N2CCC(COc3ccc(C4=CCC(C(=O)N(C)CCCO)CC4)cc3)CC2)n1` (stereo not drawn) [Example 243, N-(3-hydroxypropyl)-4-(4-((1-(3-isopropyl-1,2,4-oxadiazol-5-yl)piperidin-4-yl)methoxy)phenyl)-N-methylcyclohex-3-enecarboxamide], for which the 50% effective concentration (EC50) was 30 nM under setting [2] and at most 50 nM (read-out: EC50 value).

Take `CON(C)C(=O)C1CC=C(c2ccc(OCC3CCN(c4nc(C(C)C)no4)CC3)cc2)CC1` (stereo not drawn) [Example 247, 4-(4-((1-(3-isopropyl-1,2,4-oxadiazol-5-yl)piperidin-4-yl)methoxy)phenyl)-N-methoxy-N-methylcyclohex-3-enecarboxamide]: the EC50 under setting [2] was 16 nM and the concentration giving a half-maximal response (EC50) (read-out: EC50 value) was at most 50 nM.

In the case of `CCc1cnc(N2CCC(COc3ccc(C4=CCC(C(=O)N5CCC(=O)C5)CC4)cc3)CC2)nc1` (stereo not drawn) [Example 250, 1-(4-(4-((1-(5-ethylpyrimidin-2-yl)piperidin-4-yl)methoxy)phenyl)cyclohex-3-enecarbonyl)pyrrolidin-3-one], the EC50 was 12 nM under setting [2] and at most 50 nM (read-out: EC50 value).

Turning to `CCc1cnc(N2CCC(COc3ccc(C4=CCC(C(=O)N5C/C(=N\OC)C(CO)(CO)C5)CC4)cc3)CC2)nc1` (stereo not drawn) [Example 253, (Z)-(3,3-bis(hydroxymethyl)-4-(methoxyimino)pyrrolidin-1-yl)(4-(4-((1-(5-ethylpyrimidin-2-yl)piperidin-4-yl)methoxy)phenyl)cyclohex-3-enyl)methanone], the concentration giving a half-maximal response (EC50) under setting [2] is 9 nM.

On to `CCc1cnc(N2CCC(COc3ccc(C4=CCC(C(=O)N5C/C(=N\OC)C6(CN(C(=O)OC(C)(C)C)C6)C5)CC4)cc3)CC2)nc1` (stereo not drawn) [Example 254, (Z)-tert-butyl 6-(4-(4-((1-(5-ethylpyrimidin-2-yl)piperidin-4-yl)methoxy)phenyl)cyclohex-3-enecarbonyl)-8-(methoxyimino)-2,6-diazaspiro[3.4]octane-2-carboxylate], for which the 50% effective concentration (EC50) under setting [2] came to 10 nM and the concentration giving a half-maximal response (EC50) (read-out: EC50 value) is at most 50 nM.

As for `CC(C)(C)OC(=O)N1CCC(COc2ccc(C3=CCC(C(=O)N4CCN(CC5CC5)CC4)CC3)cc2)CC1` (stereo not drawn) [Example 256, tert-butyl 4-((4-(4-(4-(cyclopropylmethyl)piperazine-1-carbonyl)cyclohex-1-enyl)phenoxy)methyl)piperidine-1-carboxylate], the concentration giving a half-maximal response (EC50) under setting [2] came out at 32 nM.

Turning to `CC(C)(C)OC(=O)N1CCC(COc2ccc(C3=CCC(C(=O)N4CCC(F)(F)C4)CC3)cc2)CC1` (stereo not drawn) [Example 257, tert-butyl 4-((4-(4-(3,3-difluoropyrrolidine-1-carbonyl)cyclohex-1-enyl)phenoxy)methyl)piperidine-1-carboxylate], the EC50 is 8 nM under setting [2] and at most 50 nM (read-out: EC50 value).

Regarding `CCc1cnc(N2CCC(COc3ccc(C4=CCC(C(=O)N5CCC(F)(F)C5)CC4)cc3)CC2)nc1` (stereo not drawn) [Example 258, (3,3-difluoropyrrolidin-1-yl)(4-(4-((1-(5-ethylpyrimidin-2-yl)piperidin-4-yl)methoxy)phenyl)cyclohex-3-enyl)methanone], the concentration for a half-maximal effect (EC50) was 10 nM under setting [2] and at most 50 nM (read-out: EC50 value).

Take `CC(C)c1noc(N2CCC(COc3ccc(C4=CCC(C(=O)N5CCC(F)(F)C5)CC4)cc3)CC2)n1` (stereo not drawn) [Example 259, (3,3-difluoropyrrolidin-1-yl)(4-(4-((1-(3-isopropyl-1,2,4-oxadiazol-5-yl)piperidin-4-yl)methoxy)phenyl)cyclohex-3-enyl)methanone]: the EC50 reads like this: under setting [2], 10 nM; (read-out: EC50 value) at most 50 nM.

As to `CC(C)(C)OC(=O)N1CCC(COc2ccc(C3=CCC(C(=O)N4CCC5(CC4)OCCO5)CC3)cc2)CC1` (stereo not drawn) [Example 263, tert-butyl 4-((4-(4-(1,4-dioxa-8-azaspiro[4.5]decane-8-carbonyl)cyclohex-1-enyl)phenoxy)methyl)piperidine-1-carboxylate], the concentration giving a half-maximal response (EC50) under setting [1] was 9 nM and the EC50 (EC50 value) was at most 50 nM.

`CC(C)(C)OC(=O)N1CCC(COc2ccc(C3=CCC(C(=O)N4CCC5(C=Cc6ccccc65)CC4)CC3)cc2)CC1` (stereo not drawn) [Example 264, tert-butyl 4-((4-(4-(spiro[indene-1,4′-piperidin]-1′-ylcarbonyl)cyclohex-1-enyl)phenoxy)methyl)piperidine-1-carboxylate]: the concentration for a half-maximal effect (EC50) under setting [2] was 18 nM.

For `CC(C)(C)OC(=O)N1CCC(COc2ccc(C3=CCC(C(=O)N4CCC(=O)C4)CC3)cc2)CC1` (stereo not drawn) [Example 265, tert-butyl 4-((4-(4-(3-oxopyrrolidine-1-carbonyl)cyclohex-1-enyl)phenoxy)methyl)piperidine-1-carboxylate], the EC50 runs as follows: under setting [2], 32 nM; (read-out: EC50 value) at most 50 nM.

With `CC(C)c1noc(N2CCC(COc3ccc(C4=CCC(C(=O)N5CCC(C#N)CC5)CC4)cc3)CC2)n1` (stereo not drawn) [Example 266, 1-(4-(4-((1-(3-isopropyl-1,2,4-oxadiazol-5-yl)piperidin-4-yl)methoxy)phenyl)cyclohex-3-enecarbonyl)piperidine-4-carbonitrile], the EC50 is, setting by setting: under setting [2], 12 nM; (read-out: EC50 value) at most 50 nM.

Take `CC(C)c1noc(N2CCC(COc3ccc(C4=CCC(C(=O)N5CCC6(CC5)OCCO6)CC4)cc3)CC2)n1` (stereo not drawn) [Example 267, (4-(4-((1-(3-isopropyl-1,2,4-oxadiazol-5-yl)piperidin-4-yl)methoxy)phenyl)cyclohex-3-enyl)(1,4-dioxa-8-azaspiro[4.5]decan-8-yl)methanone]: the EC50 was 21 nM under setting [1] and at most 50 nM (EC50 value).
